# Data taken from patent US9078907B2, “Immunoregulator compounds” (Universita Degli Studi Di Roma “Tor Vergata”, priority 2001, dated 2015).
# Columns and labels:
# [1] = test system: Mycobacterium smegmatis; assay: Colony forming units of M. smegmatis in differentiated THP-1 cells; format: cell-based; settings: THP-1, M. smegmatis, S1P 5 μM; ethanol 0.3%, 0.03%, 0.003% (dose dependent) or calphostin C 10 nM
# Procedure: Human monocytic THP-1 leukemia line cells were used in this example as a model for macrophage response. In order to obtain macrophage phenotype, 5×10^5/ml THP-1 cells were induced to differentiate by 48 hours incubation in the presence of 20 ng/ml Phorbol Myristate Acetate (PMA). Differentiated THP-1 cells (dTHP-1) were then centrifuged three times and suspended in complete medium [RPMI 1640 (Gibco BRL) supplemented with 10% fetal bovine serum (Gibco BRL), 5 mM L-glutamine (Invitrogen), 1 mM sodium pyruvate (Gibco BRL) and non-essential amino acids (Euroclone)]. dTHP-1 were then infected for 3 hours with M. smegmatis at the multiplicity of infection of bacterium/cell 50:1. Following infection cells were washed three times with RPMI 1640 and incubated in complete medium at 37° C. for further 1, 12 and 24 hours in the presence or absence of sphingosine-1 phosphate used at the concentration of 5 μM.
# In order to assess the role of macrophage PLD activity in sphingosine 1-phosphate induced mycobacterial growth control, following the infection the cells were cultured in the presence of various concentrations of ethanol (0.3%, 0.03%, 0.003%) or 10 nM calphostin C. […] Inhibiting activity of calphostin C is exploited by targeting PLD catalytic domain (Sciorra V. A., Hammond S. M., Morris A. J. Potent direct inhibition of mammalian phospholipase D isoenzymes by calphostin c. Biochemistry 2001; 40: 2640-46). Just after the infection and at the indicated time points, cells were 1) lysed using cold PBS containing 0.1% saponin (Sigma, MA, USA), ii) serially diluted in PBS containing 0.01% Tween-80 (Merck, Darmstadt, Germany) and iii) plated in triplicate in Middlebrook 7H10 medium (Becton Dickinson, MD, USA) supplemented with 10% OADC formulation (0.5 mg/ml oleic acid, 50 mg/ml albumin, 20 mg/ml dextrose, 0.04 mg/ml catalase and 8.5 mg/ml sodium chloride). M. smegmatis colonies were enumerated after incubation for 3 days at 37° C.
# [2] = test system: macrophage PLD; format: cell-based, human
# [3] = test system: macrophages; assay: ROI generation by dichlorofluorescein (DCF) flow cytometry; format: cell-based, human; settings: lipopolysaccharide stimulated cells, positive control
# Procedure: Because dichloro fluorescein (DCF) is a fluorochrome obtained from reaction of non fluorescent 2, 7-dichloro fluorescein diacetate (DCFH) with various oxidants, analysis thereof is used to detect cellular oxidative stress and amount of oxygen reactive intermediates (ROI) produced by phagocytic cells. In the used model, this analysis is employed in order to monitor the D-erythro-sphingosine 1-phosphate (S1P) modulated ROI production from macrophages. Macrophages were incubated for 90 minutes with sphingosine 1-phosphate at 0.5 μM, 5 μM, 10 μM and 50 μM concentrations. After the incubation 100 μl of 0.4 μM DCFH (Calbiochem) were added and incubated for at least 30 minutes. Finally, cells were washed with PBS and analysed using FACScan flow cytometer from Becton Dickinson.
compound,measurement,setting,value
CCO [ethanol],mycobacterial replication after PLD inhibitor treatment of S1P treated cells,[1],increase
IFN-γ,effect of IFN-γ pre-treatment on PLD activity of infected macrophages,[2],does not modify
same,effect of IFN-γ treatment before and/or after infection on levels of macrophage PLD activity,[2],does not appear to modify
calphostin C,mycobacterial replication after PLD inhibitor treatment of S1P treated cells,[1],increase
lipopolysaccharides [reference compound],DCF positive cells after stimulation,[3],increase
